Source: patent US12157717B2, “Compounds for the treatment of bovine or swine respiratory disease” (Intervet Inc., priority 2018, dated 2024)
Converted amounts (≈) assume the structure as drawn.

How the values were obtained:
Assay type in all cases: cell-based
[1] = system: Pasteurella multocida PM 6391 (ATCC 43137); assay: MIC, broth-microdilution (CLSI), strain PM 6391; details: Pasteurella multocida ATCC 43137, reference strain
Experimental: (§1) The Minimum inhibitory concentrations (MIC) of compounds according to the invention for a number of veterinary bacterial pathogens were determined by the broth-microdilution method according to CLSI document VETO 1-A4.
(§2) Microdilution trays containing a doubling dilution series of the test compound were used for the tests. The MIC results were interpreted according to the CLSI documents VET01-S3. The lowest concentration of compound at which no visible growth (i.e. no turbidity) detected by the unaided eye was recorded as the MIC.

[2] = system: Mannheimia haemolytica MH 13065 (XB0446-6003.9); assay: MIC, broth-microdilution (CLSI), strain MH 13065; details: Mannheimia haemolytica XB0446-6003.9, BRD field isolate
Experimental: as §1, §2

[3] = system: Mannheimia haemolytica MH 6357 (M7/2); assay: MIC, broth-microdilution (CLSI), strain MH 6357; details: Mannheimia haemolytica M7/2, reference strain (cattle infection strain)
Experimental: as §1, §2

[4] = system: Pasteurella multocida PM 10775 (080130003051); assay: MIC, broth-microdilution (CLSI), strain PM 10775; details: Pasteurella multocida 080130003051, BRD field isolate
Experimental: as §1, §2

[5] = system: Mannheimia haemolytica MH 6374 (ATCC 33396); assay: MIC, broth-microdilution (CLSI), strain MH 6374; details: Mannheimia haemolytica ATCC 33396, reference strain
Experimental: as §1, §2

[6] = system: Pasteurella multocida PM 6267 (P 2225 (L386)); assay: MIC, broth-microdilution (CLSI), strain PM 6267; details: Pasteurella multocida P 2225 (L386), reference strain (mouse infection strain)
Experimental: as §1, §2

[7] = system: Mannheimia haemolytica MH 10720 (154); assay: MIC, broth-microdilution (CLSI), strain MH 10720; details: Mannheimia haemolytica 154, BRD field isolate
Experimental: as §1, §2

[8] = system: Pasteurella multocida PM 12080 (IV102277-0093); assay: MIC, broth-microdilution (CLSI), strain PM 12080; details: Pasteurella multocida IV102277-0093, BRD field isolate
Experimental: as §1, §2

[9] = system: Mannheimia haemolytica MH 12587 (1071), macrolide-resistance: erm+, E+; assay: MIC, broth-microdilution (CLSI), strain MH 12587; details: Mannheimia haemolytica 1071, BRD field isolate
Experimental: as §1, §2

[10] = system: Mannheimia haemolytica MH 13093 (XB0472-6014.1); assay: MIC, broth-microdilution (CLSI), strain MH 13093; details: Mannheimia haemolytica XB0472-6014.1, BRD field isolate
Experimental: as §1, §2

| SMILES | MIC PM 6391 [1] [µM] | MIC MH 13065 [2] [µM] | MIC MH 6357 [3] [µM] | MIC PM 10775 [4] [µM] | MIC MH 6374 [5] [µM] | MIC PM 6267 [6] [µM] | MIC MH 10720 [7] [µM] | MIC PM 12080 [8] [µM] | MIC MH 12587 [9] [µM] | MIC MH 13093 [10] [µM] |
| --- | --- | --- | --- | --- | --- | --- | --- | --- | --- | --- |
| CNC(=O)C(NC(=O)c1ccc(C#Cc2ccc(CNC3CC3)cc2)cc1)C(=O)NO (centres unmarked) [Compound 1] | ≤0.1 | 0.4 (≈ 0.168 µg/mL) | 0.4 (≈ 0.168 µg/mL) | ≤0.1 | 0.4 (≈ 0.168 µg/mL) | ≤0.1 | ≤0.1 | ≤0.1 | 0.8 (≈ 0.336 µg/mL) | 1.6 (≈ 0.673 µg/mL) |
| C=CCNCc1ccc(C#Cc2ccc(C(=O)NC(C(=O)NC)C(=O)NO)cc2)cc1 (centres unmarked) [Compound 2] | 0.4 (≈ 0.168 µg/mL) | 0.8 (≈ 0.336 µg/mL) | 0.8 (≈ 0.336 µg/mL) | ≤0.1 | 1.6 (≈ 0.673 µg/mL) | 0.2 (≈ 0.0841 µg/mL) | 0.4 (≈ 0.168 µg/mL) | ≤0.1 | 0.8 (≈ 0.336 µg/mL) | 1.6 (≈ 0.673 µg/mL) |
| CNC(=O)C(NC(=O)c1ccc(C#Cc2ccc(CNCCOC)cc2)cc1)C(=O)NO (centres unmarked) [Compound 3] | 0.4 (≈ 0.175 µg/mL) | 1.6 (≈ 0.702 µg/mL) | 1.6 (≈ 0.702 µg/mL) | ≤0.1 | 3.1 (≈ 1.36 µg/mL) | 0.2 (≈ 0.0877 µg/mL) | 0.8 (≈ 0.351 µg/mL) | 0.4 (≈ 0.175 µg/mL) | 6.3 (≈ 2.76 µg/mL) | 1.6 (≈ 0.702 µg/mL) |
| CNC(=O)C(NC(=O)c1ccc(C#Cc2ccc(CN3CCOCC3)cc2)cc1)C(=O)NO (centres unmarked) [Compound 4] | ≤0.1 | 1.6 (≈ 0.721 µg/mL) | 1.6 (≈ 0.721 µg/mL) | ≤0.1 | 3.1 (≈ 1.4 µg/mL) | ≤0.1 | 0.4 (≈ 0.18 µg/mL) | ≤0.1 | 6.3 (≈ 2.84 µg/mL) | 1.6 (≈ 0.721 µg/mL) |
| CNC(=O)C(NC(=O)c1ccc(C#Cc2ccc(CNCc3ccccc3)cc2)cc1)C(=O)NO (centres unmarked) [Compound 5] | 0.2 (≈ 0.0941 µg/mL) | 0.8 (≈ 0.376 µg/mL) | 0.4 (≈ 0.188 µg/mL) | ≤0.1 | 0.8 (≈ 0.376 µg/mL) | ≤0.1 | ≤0.1 | ≤0.1 | 1.6 (≈ 0.753 µg/mL) | 1.6 (≈ 0.753 µg/mL) |
| CNC(=O)C(NC(=O)c1ccc(C#Cc2ccc(CNCc3ccc(OC)cc3)cc2)cc1)C(=O)NO (centres unmarked) [Compound 6] | 0.2 (≈ 0.1 µg/mL) | 0.8 (≈ 0.4 µg/mL) | 0.4 (≈ 0.2 µg/mL) | ≤0.1 | 0.8 (≈ 0.4 µg/mL) | ≤0.1 | ≤0.1 | ≤0.1 | 1.6 (≈ 0.801 µg/mL) | 1.6 (≈ 0.801 µg/mL) |
| CNC(=O)C(NC(=O)c1ccc(C#Cc2ccc(CN3CCCC3)cc2)cc1)C(=O)NO (centres unmarked) [Compound 7] | 0.4 (≈ 0.174 µg/mL) | 12.5 (≈ 5.43 µg/mL) | 3.1 (≈ 1.35 µg/mL) | 0.2 (≈ 0.0869 µg/mL) | 12.5 (≈ 5.43 µg/mL) | ≤0.1 | 1.6 (≈ 0.695 µg/mL) | 0.8 (≈ 0.348 µg/mL) | 12.5 (≈ 5.43 µg/mL) | 6.3 (≈ 2.74 µg/mL) |
| CNC(=O)C(NC(=O)c1ccc(C#Cc2ccc(CNC3CCC3)cc2)cc1)C(=O)NO (centres unmarked) [Compound 8] | 0.4 (≈ 0.174 µg/mL) | 6.3 (≈ 2.74 µg/mL) | 3.1 (≈ 1.35 µg/mL) | ≤0.1 | 6.3 (≈ 2.74 µg/mL) | ≤0.1 | 1.6 (≈ 0.695 µg/mL) | 0.4 (≈ 0.174 µg/mL) | 12.5 (≈ 5.43 µg/mL) | 6.3 (≈ 2.74 µg/mL) |
| CNC(=O)C(NC(=O)c1ccc(C#Cc2ccc(CNC3CCCC3)cc2)cc1)C(=O)NO (centres unmarked) [Compound 9] | 0.4 (≈ 0.179 µg/mL) | 12.5 (≈ 5.61 µg/mL) | 6.3 (≈ 2.83 µg/mL) | 0.2 (≈ 0.0897 µg/mL) | 25 (≈ 11.2 µg/mL) | 0.4 (≈ 0.179 µg/mL) | 3.1 (≈ 1.39 µg/mL) | 0.4 (≈ 0.179 µg/mL) | 25 (≈ 11.2 µg/mL) | 12.5 (≈ 5.61 µg/mL) |
| CCCNCc1ccc(C#Cc2ccc(C(=O)NC(C(=O)NC)C(=O)NO)cc2)cc1 (centres unmarked) [Compound 10] | 0.8 (≈ 0.338 µg/mL) | 3.1 (≈ 1.31 µg/mL) | 3.1 (≈ 1.31 µg/mL) | 0.2 (≈ 0.0845 µg/mL) | 6.3 (≈ 2.66 µg/mL) | 0.8 (≈ 0.338 µg/mL) | 1.6 (≈ 0.676 µg/mL) | 0.8 (≈ 0.338 µg/mL) | 12.5 (≈ 5.28 µg/mL) | 1.6 (≈ 0.676 µg/mL) |
| CNC(=O)C(NC(=O)c1ccc(C#Cc2ccc(CNCc3cccnc3)cc2)cc1)C(=O)NO (centres unmarked) [Compound 11] | 0.2 (≈ 0.0943 µg/mL) | 0.8 (≈ 0.377 µg/mL) | 0.4 (≈ 0.189 µg/mL) | ≤0.1 | 0.8 (≈ 0.377 µg/mL) | ≤0.1 | 0.2 (≈ 0.0943 µg/mL) | ≤0.1 | 0.8 (≈ 0.377 µg/mL) | 1.6 (≈ 0.754 µg/mL) |
| CNC(=O)C(NC(=O)c1ccc(C#Cc2ccc(CNCc3ccnc(Cl)c3)cc2)cc1)C(=O)NO (centres unmarked) [Compound 12] | ≤0.1 | 0.4 (≈ 0.202 µg/mL) | 0.2 (≈ 0.101 µg/mL) | ≤0.1 | 0.4 (≈ 0.202 µg/mL) | ≤0.1 | ≤0.1 | ≤0.1 | 0.8 (≈ 0.405 µg/mL) | 0.4 (≈ 0.202 µg/mL) |
| CNC(=O)C(NC(=O)c1ccc(C#Cc2ccc(CNCc3ccccn3)cc2)cc1)C(=O)NO (centres unmarked) [Compound 13] | 0.2 (≈ 0.0943 µg/mL) | 1.6 (≈ 0.754 µg/mL) | 0.8 (≈ 0.377 µg/mL) | ≤0.1 | 0.8 (≈ 0.377 µg/mL) | ≤0.1 | 0.2 (≈ 0.0943 µg/mL) | ≤0.1 | 1.6 (≈ 0.754 µg/mL) | 0.8 (≈ 0.377 µg/mL) |
| CNC(=O)C(NC(=O)c1ccc(C#Cc2ccc(CNCc3ccco3)cc2)cc1)C(=O)NO (centres unmarked) [Compound 14] | ≤0.1 | 0.4 (≈ 0.184 µg/mL) | 0.4 (≈ 0.184 µg/mL) | ≤0.1 | 0.4 (≈ 0.184 µg/mL) | ≤0.1 | 0.2 (≈ 0.0921 µg/mL) | ≤0.1 | 0.4 (≈ 0.184 µg/mL) | 0.8 (≈ 0.368 µg/mL) |
| CNC(=O)C(NC(=O)c1ccc(C#Cc2ccc(CNCc3cccs3)cc2)cc1)C(=O)NO (centres unmarked) [Compound 15] | ≤0.1 | 0.2 (≈ 0.0953 µg/mL) | 0.2 (≈ 0.0953 µg/mL) | ≤0.1 | 0.2 (≈ 0.0953 µg/mL) | ≤0.1 | ≤0.1 | ≤0.1 | 0.8 (≈ 0.381 µg/mL) | 0.2 (≈ 0.0953 µg/mL) |
| CNC(=O)C(NC(=O)c1ccc(C#Cc2ccc(CNCc3ccc(C)cc3)cc2)cc1)C(=O)NO (centres unmarked) [Compound 16] | 0.4 (≈ 0.194 µg/mL) | 0.8 (≈ 0.388 µg/mL) | 0.4 (≈ 0.194 µg/mL) | ≤0.1 | 0.8 (≈ 0.388 µg/mL) | ≤0.1 | 0.2 (≈ 0.0969 µg/mL) | 0.2 (≈ 0.0969 µg/mL) | 1.6 (≈ 0.775 µg/mL) | 1.6 (≈ 0.775 µg/mL) |
| CNC(=O)C(NC(=O)c1ccc(C#Cc2ccc(CNCC3CCCO3)cc2)cc1)C(=O)NO (centres unmarked) [Compound 17] | 0.4 (≈ 0.186 µg/mL) | 3.1 (≈ 1.44 µg/mL) | 3.1 (≈ 1.44 µg/mL) | ≤0.1 | 6.3 (≈ 2.93 µg/mL) | ≤0.1 | 0.8 (≈ 0.372 µg/mL) | 0.2 (≈ 0.0929 µg/mL) | 12.5 (≈ 5.81 µg/mL) | 12.5 (≈ 5.81 µg/mL) |
| CNC(=O)C(NC(=O)c1ccc(C#Cc2ccc(CNCc3nccs3)cc2)cc1)C(=O)NO (centres unmarked) [Compound 18] | ≤0.1 | 0.4 (≈ 0.191 µg/mL) | 0.4 (≈ 0.191 µg/mL) | ≤0.1 | 0.4 (≈ 0.191 µg/mL) | ≤0.1 | 0.2 (≈ 0.0955 µg/mL) | ≤0.1 | 0.8 (≈ 0.382 µg/mL) | 0.4 (≈ 0.191 µg/mL) |
| CNC(=O)C(NC(=O)c1ccc(C#Cc2ccc(CNCC(F)(F)F)cc2)cc1)C(=O)NO (centres unmarked) [Compound 19] | ≤0.1 | 0.2 (≈ 0.0925 µg/mL) | 0.2 (≈ 0.0925 µg/mL) | ≤0.1 | 0.4 (≈ 0.185 µg/mL) | ≤0.1 | ≤0.1 | ≤0.1 | 0.8 (≈ 0.37 µg/mL) | 0.2 (≈ 0.0925 µg/mL) |
| C#CCNCc1ccc(C#Cc2ccc(C(=O)NC(C(=O)NC)C(=O)NO)cc2)cc1 (centres unmarked) [Compound 20] | ≤0.1 | 0.2 (≈ 0.0837 µg/mL) | 0.2 (≈ 0.0837 µg/mL) | ≤0.1 | 0.2 (≈ 0.0837 µg/mL) | ≤0.1 | ≤0.1 | ≤0.1 | 0.8 (≈ 0.335 µg/mL) | 0.4 (≈ 0.167 µg/mL) |
